The text below walks through data of patent US12703686B2, “4-Methoxy-2-phenethyl isoindoline-1-one derivative and composition for treating neurological diseases, comprising same” (CNG BIO CO., LTD., priority 2020, dated 2026).

One experiment deals with BV2 cells (microglia). The experiment in a line: NO production in LPS-stimulated BV2 cells (Griess reaction), antineuritic activity. Type of experiment: cell-based. The note with it: 10 NM, 100 ng/ml LPS for 24 hours, FIG. 13. The procedure: In order to confirm the change in NO production and the effect on cell viability when BV2 cells were treated with the compounds of the present invention, the following experiments were performed. L-NMMA (NG-monomethyl-L-arginine), an NO synthesis inhibitor, was used as a positive control group.
Analysis of NO production for evaluation of antineuritic activity BV2 cells (microglia) were dispensed in DMEM culture solution at a concentration of 6×10^4 cells/well in a 96 well plate, and then treated with the compounds of Formulas 6, 7, and 8 at a concentration of 10 NM, and incubated for 24 hours. After 24 hours, each sample was treated with a concentration of 10 NM, reacted for 1 hour, and then stimulated with 100 ng/ml of LPS for 24 hours. The production of nitrite, a soluble oxidation product of NO (nitric oxide), was measured in the culture medium through the Griess reaction.
(In general: Griess reagent forms a coloured azo dye with nitrite.)

The next experiment deals with C6 glioma cells. The experiment in a line: Ability to promote increase of nerve growth factor (NGF) in C6 glioma cells, ELISA. As to conditions: 10 μM, 24 hours, FIG. 9. The experiment is classed as cell-based, Rat. The method, then: In order to measure the amount of nerve growth factor (NGF) produced in the cell medium and to confirm the effect on cell viability when cells were treated with the compounds of the present invention, the following experiments were performed.
Rat astrocyte-derived C6 glioma cells were dispensed in DMEM culture solution at a concentration of 1×10^5 cells/well in a 24 well plate and stabilized overnight, and then treated with the compounds of Formulas 3, 6, 7, and 8 at a concentration of 10 μM, and reacted in a 37° C. incubator for 24 hours. The treated medium was collected and centrifuged, and then absorbance was measured using an enzyme linked immunoassay kit (ELISA kit).
In general terms: In an ELISA, binding on a coated surface is turned into a signal by an enzyme label.

`COc1cc(O)c(CCO)c2c1CN(CCc1ccccc1)C2=O` [Formula 6, 6-hydroxy-7-(2-hydroxyethyl)-4-methoxy-2-phenethyl isoindolin-1-one]: in the experiment on BV2 cells (microglia), the “NO production (nitrite) compared to untreated control group” value is reported as “reduced”.

As to `COc1cc(O)c(CCN(C)C)c2c1CN(CCc1ccccc1)C2=O` [Formula 7, 7-(2-(dimethylamino)ethyl)-6-hydroxy-4-methoxy-2-phenethyl isoindolin-1-one], the “nerve growth factor produced in the cell medium” value with C6 glioma cells is given as “significantly excellent”. Also, in the experiment on BV2 cells (microglia), the “NO production (nitrite) compared to untreated control group” value is “reduced”.

For `COc1cc(O)c(CCCO)c2c1CN(CCc1ccccc1)C2=O` [Formula 8, 6-hydroxy-7-(3-hydroxypropyl)-4-methoxy-2-phenethyl isoindolin-1-one], the “NO production (nitrite) compared to untreated control group” value with BV2 cells (microglia) is reported as “reduced”.

Turning to `C=CCc1c(O)cc(OC)c2c1C(=O)N(CCc1ccccc1)C2` [Formula 3, 7-allyl-6-hydroxy-4-methoxy-2-phenethyl isoindolin-1-one], the “nerve growth factor produced in the cell medium” value in the experiment on C6 glioma cells is listed as “significantly excellent”.
